One assay concerns the target T1, ALK4 (Homo sapiens, UniProt P36896).
T1 construct: purchased Life technology (Fredrick, Md.) and/or CARNA BIOSCIENCES Inc. (Kobe, Japan)
T1 sequence (P36896 24-505): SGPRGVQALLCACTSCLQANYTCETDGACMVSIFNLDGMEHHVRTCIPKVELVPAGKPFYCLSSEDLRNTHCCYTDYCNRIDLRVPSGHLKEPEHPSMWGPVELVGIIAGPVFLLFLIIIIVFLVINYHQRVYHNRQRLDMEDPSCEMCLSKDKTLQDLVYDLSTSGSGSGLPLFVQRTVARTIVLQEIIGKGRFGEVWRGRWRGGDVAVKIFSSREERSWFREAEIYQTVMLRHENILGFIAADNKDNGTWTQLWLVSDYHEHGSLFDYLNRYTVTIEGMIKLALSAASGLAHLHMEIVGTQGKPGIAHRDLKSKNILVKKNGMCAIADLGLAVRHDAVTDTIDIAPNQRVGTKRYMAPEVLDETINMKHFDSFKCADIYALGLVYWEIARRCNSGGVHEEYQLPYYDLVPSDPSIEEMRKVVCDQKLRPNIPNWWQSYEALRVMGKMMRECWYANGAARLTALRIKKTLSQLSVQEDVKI
Description: TR-FRET enzymatic assay, ALK4 kinase, 1536-well. The assay is classed as biochemical. The note with it: for IC50: 10 nM ALK, Ulight topo II substrate 50 nM, ATP 10 uM (Table 1); for ALK4 Span: span of the concentration-response curve. The text has this:
(§1) We have developed six ALK kinase enzyme assays for determination of compound activities on ALK1, ALK2, ALK3, ALK4, ALK5 and ALK6. For the assay development, we had tested a number of substrates and assay conditions that led to the final optimized assay protocols with good assay windows with signal to basal (S/B) ratios above 20 fold for all six ALK assays (FIG. 1). In our knowledge, these ALK kinase assays have not been reported elsewhere.
(§2) ALK1 and ALK2-ALK6 were obtained from Life technology (Fredrick, Md.) and CARNA BIOSCIENCES Inc. (Kobe, Japan). Ulight-DNA Topoisomerase 2 alpha (Thr-1342) peptide and Europium anti-phospho-DNA Topoisomerase 2 alpha (Thr-1342) antibody was from Perkin Elmer Inc. The kinase buffer was composed of 50 mM HEPES pH7.0, 10 mM MgCl2, 3 mM MnCl2, 0.005% Tween-20 and 2 mM DTT. The compound plates and the white solid MB assay plates were purchased from Greiner Bio-one (Monroe, N.C.).
(§3) The binding of Eu-anti-phospho-peptide antibody to the phosphorylated Ulight peptide substrate bring both Eu donor and Ulight acceptor dye into close proximity. Upon excitation at 320-340 nm, the emission energy from Eu donor is transferred to Ulight acceptor dye that will generate light at 665 nm. The intensity light emission is proportional to the level of the peptide phosphorylation by ALKs. The assay was optimized and performed in 1536 plate (Table 1). Briefly, the ALKs enzymatic assay was initiated by dispense 2.5 ul enzyme with a final concentration at 10 nM prepared in 1× kinase reaction buffer. The assay plate was then added with compounds with the Pintool station (23 nl/well compound dilutions in DMSO solution) that was followed by incubation at room temperature for 10 minutes. Then 2.5 ul/well substrate was added in which 50 nM peptide substrate mixed with 10 uM, 100 uM or 1 mM ATP (final concentration). The assay plate was incubated at room temperature for 60 minutes and the kinase reaction was stopped by addition of 5 ul/well of 4 nM Eu-anti-phospho-peptide antibody with 12 mM EDTA prepared in 1× detection buffer. The assay plate was measured in an EnVision plate reader (Perkin Elmer) in the TR-FRET detection mode (excitation at 340 nm and emission at 665 nm).
Background: In TR-FRET formats the signal depends on donor and acceptor labels being close together.

In a further assay the test system is TGFβ. Description: Luciferase reporter gene assay for TGFβ activity (HEK293T SBE-Luc SMAD2/3 reporter, TGFβ agonist). The class given is cell-based. The following applies: Homo sapiens, HEK-293T, TGFβ 5 ng/mL. Put shortly: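 TGFβ activity was measured in HEK293T SBE-Luc cells stimulated with 5 ng/mL TGFβ, at compound 10000-30 nM final. ALK2 activity was measured in C2C12 BRE-Luc cells stimulated with 50 ng/mL BMP6, at compound 1000-0.3 nM final. Compound was preincubated 45 min in 2% FBS medium; after ≥18 h agonist exposure, luminescence was read and inhibition expressed as % signal loss versus background-subtracted agonist controls.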

The target in the next assay is T2, ALK2 (Homo sapiens, UniProt Q04771).
T2 construct: purchased Life technology (Fredrick, Md.) and/or CARNA BIOSCIENCES Inc. (Kobe, Japan)
T2 sequence (Q04771 21-509): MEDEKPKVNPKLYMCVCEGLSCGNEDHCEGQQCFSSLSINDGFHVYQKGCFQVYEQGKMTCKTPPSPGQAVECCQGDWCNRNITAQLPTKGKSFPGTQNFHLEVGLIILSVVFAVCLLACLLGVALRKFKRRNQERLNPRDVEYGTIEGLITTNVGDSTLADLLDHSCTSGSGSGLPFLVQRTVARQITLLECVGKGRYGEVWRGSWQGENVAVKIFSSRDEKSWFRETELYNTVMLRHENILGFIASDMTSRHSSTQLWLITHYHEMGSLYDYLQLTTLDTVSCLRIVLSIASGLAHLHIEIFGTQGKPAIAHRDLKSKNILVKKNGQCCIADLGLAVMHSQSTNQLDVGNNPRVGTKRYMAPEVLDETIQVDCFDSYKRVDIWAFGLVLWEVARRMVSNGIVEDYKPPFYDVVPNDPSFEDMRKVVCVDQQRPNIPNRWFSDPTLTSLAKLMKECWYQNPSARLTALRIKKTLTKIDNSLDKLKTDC
Description: TR-FRET enzymatic assay, ALK2 kinase, 1536-well. The assay is classed as biochemical. The following applies: for IC50 / ALK2 Span: TR-FRET; for IC50: 10 nM ALK, Ulight topo II substrate 50 nM, ATP 10 uM (Table 1); for ALK2 Span: span of the concentration-response curve.
Text: as §1, §2, §3

In general, IC50 refers to the concentration that gives 50% inhibition. Read a low IC50 as greater potency.

Regarding `Cc1cc(-c2cnn3cc(N4CCC(N5CCN(C)CC5)CC4)cnc23)c2ccccc2n1` [Compound 8], at ALK4, the midpoint of inhibition, the IC50, lay at 994 nM and the “ALK4 Span” value was 96.6. Further, the half-inhibitory concentration (IC50) in the assay on TGFβ was 22 nM. For the same compound, at ALK2, the midpoint of inhibition, the IC50, lay at 54.3 nM and the “ALK2 Span” value was 109.4.
On to `Cc1cc(-c2cnn3cc(N4CCC(N5CCOCC5)CC4)cnc23)c2ccccc2n1` [Compound 11], for which, at ALK4, the IC50 amounted to 1030 nM and the “ALK4 Span” value was 100.0. In addition, the IC50 with TGFβ was 55 nM. On ALK2, the IC50 amounted to 111 nM and the “ALK2 Span” value was about 117.5.
With `COc1cc2c(-c3cnn4cc(N5CCC(N6CCN(C)CC6)CC5)cnc34)ccnc2cc1F` [Compound 15, 7-fluoro-6-methoxy-4-(6-(4-(4-methylpiperazin-1-yl)piperidin-1-yl)pyrazolo[1,5-a]pyrimidin-3-yl)quinoline], on ALK4, 4210 nM corresponded to half-maximal inhibition (IC50) and the “ALK4 Span” value is reported as 101. For the same compound, the IC50 with TGFβ was found to be 284 nM. For the same compound, on ALK2, half-maximal inhibition (IC50) was put at 102 nM and the “ALK2 Span” value is recorded as about 117.8.
The corresponding values for `Cc1cc(-c2cnn3cc(N4CCC(N5CCNCC5)CC4)cnc23)c2ccccc2n1` [Compound 34] are 2030 nM, 101.1, 27 nM, 178 nM and about 117.8.
As for `c1ccc2c(-c3cnn4cc(-c5ccc(N6CCNCC6)cc5)cnc34)ccnc2c1` [TRND00262637-13], the “activity in ALK2 in the presence of 10, 100, or 1,000 uM ATP” value on ALK2 (FIG. 3, ATP 10 uM versus 100 uM or 1 mM) is on record as “activity reduced in the higher ATP concentrations”.

These data come from patent publication US20230000869A1, “NOVEL ALK2 INHIBITORS AND METHODS FOR INHIBITING BMP SIGNALING” (The Brigham and Women's Hospital, Inc., priority 2017, published 2023).
